From ChEMBL document CHEMBL1128622, “Formation of nitrogen oxides including NO from oxidative cleavage of CN(OH) bonds: A general cytochrome P450-dependent reaction” (Bioorg Med Chem Lett, 1995)

Columns and labels:
Rattus norvegicus [1] = species on record: Rattus norvegicus; conditions: Liver, Microsomes
Rattus norvegicus [2] = species on record: Rattus norvegicus; conditions: Liver, Microsomes; remark: listed apart in the source
Description: Ability to undergo a P450-dependent oxidative cleavage of the C=N bond by incubating with rat (untreated) liver microsomes in the presence of NADPH

Rattus norvegicus [3] = species on record: Rattus norvegicus; experiment: Ability to undergo a P450-dependent oxidative cleavage of their C=N bond, to release NO3- by incubating with rat (treated by DEX) liver microsomes in the presence of NADPH; format: functional
Rattus norvegicus [4] = species on record: Rattus norvegicus; experiment: Ability to undergo a P450-dependent oxidative cleavage of their C=N bond, to release corresponding alkylketone derivative by incubating with rat (treated by DEX) liver microsomes in the presence of the NADPH; format: functional
Rattus norvegicus [5] = species on record: Rattus norvegicus; experiment: Ability to undergo a P450-dependent oxidative cleavage of the C=N bond by incubating with rat (treated by DEX) liver microsomes in the presence of NADPH; format: functional

| SMILES | Formation of NO2- (Rattus norvegicus [1]) | Formation of NO2- (Rattus norvegicus [2]) | Formation of NO3- (Rattus norvegicus [3]) | Formation of compound (Rattus norvegicus [4]) | Formation of NO3- (Rattus norvegicus [5]) |
| --- | --- | --- | --- | --- | --- |
| O/N=C/c1ccc(Cl)cc1 | 2 nM | < 0.1 nM |  |  |  |
| CCCC/C(CC)=N\O | 5.1 nM | < 0.1 nM |  |  |  |
| N=C(NO)Nc1ccc(Cl)cc1 | 18.4 nM | 0.6 nM | 4.4 nM | 17.7 nM |  |
| C/C(=N\O)c1ccc(Cl)cc1 | 6.2 nM | 0.1 nM |  | 6.4 nM | 1.2 nM |
| ON=C1CCCCC1 | 3 nM | < 0.1 nM |  |  |  |
| N/C(=N/c1ccc(C(F)(F)F)cc1)NO | 11 nM | < 0.1 nM |  |  |  |
| N/C(=N\O)N1CCCCC1 | 79 nM | 1.1 nM |  |  |  |
| ON=C(NC1CCCCC1)NC1CCCCC1 | 58 nM | < 0.1 nM |  |  |  |
| N/C(=N\O)c1ccc(Cl)cc1 | 2.6 nM | 0.7 nM | 1.5 nM | 5.1 nM |  |
| C/C(=N\O)c1ccccc1 | 3.2 nM | < 0.1 nM |  |  |  |
| CC(C)/N=C(/NO)NC(C)C | 62 nM | 0.9 nM |  |  |  |
| CCCCCCOc1ccc(C(=N)NO)cc1 | 6.8 nM | 0.6 nM | 8.1 nM | 12.5 nM |  |
| O/N=C/c1ccccc1 | 3 nM | < 0.1 nM |  |  |  |
| N/C(=N\O)c1ccccc1 | 2.5 nM | 0.2 nM |  |  |  |
| N/C(=N/C1CCCCC1)NO | 28.6 nM | < 0.1 nM |  |  |  |
| CCCCC/C(C)=N\O | 7 nM | < 0.1 nM |  |  |  |
| CCCCCC/C=N/O | 3.7 nM | 0.2 nM |  |  |  |
